Results reported in patent publication US12146004B2, “Polymyxin compounds and uses thereof” (priority 2014, dated 2024).
Values after ≈ are worked out from the molar mass of the structure shown. Numbered stars: 1 amine (or outer) side, 2 acyl side, 3 side chain; on linkers, the order of the positions; unused ones are H or OH. Bridge positions count the residues as written; N and C are the ends. Square brackets hold non-standard residues; d marks the D form. Peptide text beside a SMILES is read from it. * marks the point of attachment. ξ: configuration not given here. X17 = CCCCCCN([C@@H](CCN)C(=O)[*:2])[*:1]; X14 = CC(C)c1ccc(CO[C@@H](CCN)C(=O)*)cc1; dCha = N[C@H](CC1CCCCC1)C(=O)O; Thr(3ξ) = CC(O)[C@H](N)C(=O)O; X4 = CC(C)CC1CNCC(C(=O)*)C1; X19 = NCCC(C(=O)*)C1CCCCC1; X22 = NC(CCC(=O)*)C1CCCCC1; Dab = NCC[C@H](N)C(=O)O; Dap = NC[C@H](N)C(=O)O

Tests used:
Assay type in all cases: cell-based
Escherichia coli = tested on: Escherichia coli
Procedure, shortened: (§1)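 Values are minimum inhibitory concentrations, reported in μg/mL. Compounds were tested for susceptibility against up to nine strains per organism, including resistant isolates.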

Acinetobacter baumannii = tested on: Acinetobacter baumannii
Procedure, shortened: as §1

Pseudomonas aeruginosa = tested on: Pseudomonas aeruginosa
Procedure, shortened: as §1

Klebsiella pneumoniae = tested on: Klebsiella pneumoniae
Procedure, shortened: as §1

| MIC E. coli 058 (Escherichia coli) | MIC E. coli 061 (Escherichia coli) | MIC E. coli ATCC 25922 (Escherichia coli) | MIC E. coli NCTC 9001 (Escherichia coli) | MIC A. baumanii 053 (Acinetobacter baumannii) | MIC A. baumanii 056 (Acinetobacter baumannii) | MIC A. baumanii ATCC BAA-747 (Acinetobacter baumannii) | MIC A. baumanii NCTC 13424 (Acinetobacter baumannii) | MIC P. aeruginosa 068 (Pseudomonas aeruginosa) | MIC P. aeruginosa 070 (Pseudomonas aeruginosa) | MIC P. aeruginosa ATCC 27853 (Pseudomonas aeruginosa) | MIC P. aeruginosa CCUG 59347 (Pseudomonas aeruginosa) | MIC K. pneumoniae 063 (Klebsiella pneumoniae) | MIC K. pneumoniae 065 (Klebsiella pneumoniae) | MIC K. pneumoniae ATCC 13882 (Klebsiella pneumoniae) | Compound | other results |
| --- | --- | --- | --- | --- | --- | --- | --- | --- | --- | --- | --- | --- | --- | --- | --- | --- |
| 8 mg/L (≈ 6.99 µM) |  | 0.125 mg/L (≈ 0.109 µM) |  |  |  | 1 mg/L (≈ 0.874 µM) | 2 mg/L (≈ 1.75 µM) |  |  | 0.5 mg/L (≈ 0.437 µM) | 0.5 mg/L (≈ 0.437 µM) |  | 2 mg/L (≈ 1.75 µM) | 0.125 mg/L (≈ 0.109 µM) | CC(C)C[C@@H]1NC(=O)[C@@H](CC2CCCCC2)NC(=O)[C@H](CCN)NC(=O)[C@@H](NC(=O)[C@H](CCN)NC(=O)[C@@H](NC(=O)C(CCN)Cc2ccccc2)C(C)O)CCNC(=O)[C@H]([C@@H](C)O)NC(=O)[C@H](CCN)NC(=O)[C@H](CCN)NC1=O (single isomer, unassigned; isomer 2) [Example 36, 4-amino-2-benzylbutanoyl-polymyxin [D-cyclohexylalanine]-6 nonapeptide. isomer 2] |  |
| 2 mg/L (≈ 1.68 µM) | 16 mg/L (≈ 13.5 µM) | 0.25 mg/L (≈ 0.21 µM) | 0.25 mg/L (≈ 0.21 µM) | 64 mg/L (≈ 53.9 µM) | 32 mg/L (≈ 26.9 µM) | 0.25 mg/L (≈ 0.21 µM) | 0.125 mg/L (≈ 0.105 µM) | 4 mg/L (≈ 3.37 µM) | 4 mg/L (≈ 3.37 µM) | 0.25 mg/L (≈ 0.21 µM) | 0.5 mg/L (≈ 0.421 µM) | 64 mg/L (≈ 53.9 µM) | 0.5 mg/L (≈ 0.421 µM) | 0.25 mg/L (≈ 0.21 µM) | CC(C)C[C@@H]1NC(=O)[C@@H](CC2CCCCC2)NC(=O)[C@H](CCN)NC(=O)[C@@H](NC(=O)[C@H](CN)NC(=O)[C@@H](NC(=O)[C@H](CCN)OCc2ccc(C(C)C)cc2)[C@@H](C)O)CCNC(=O)[C@H]([C@@H](C)O)NC(=O)[C@H](CCN)NC(=O)[C@H](CCN)NC1=O [Example 88, (S)-4-amino-2-((4-isopropylbenzyl)oxy)butanoyl L-Thr-L-Dap-polymyxin [D-cyclohexylalanine-6]heptapeptide] (X14-T[Dap][Dab][Dab][dCha]L[Dab][Dab]T; lactam 3-C) |  |

More lines, now with the values behind:

| Compound | MIC E. coli 058 (Escherichia coli) | MIC E. coli 061 (Escherichia coli) | MIC E. coli ATCC 25922 (Escherichia coli) | MIC E. coli NCTC 9001 (Escherichia coli) | MIC A. baumanii 053 (Acinetobacter baumannii) | MIC A. baumanii 056 (Acinetobacter baumannii) | MIC A. baumanii ATCC BAA-747 (Acinetobacter baumannii) | MIC A. baumanii NCTC 13424 (Acinetobacter baumannii) | MIC P. aeruginosa 068 (Pseudomonas aeruginosa) | MIC P. aeruginosa 070 (Pseudomonas aeruginosa) | MIC P. aeruginosa ATCC 27853 (Pseudomonas aeruginosa) | MIC P. aeruginosa CCUG 59347 (Pseudomonas aeruginosa) | MIC K. pneumoniae 063 (Klebsiella pneumoniae) | MIC K. pneumoniae 065 (Klebsiella pneumoniae) | MIC K. pneumoniae ATCC 13882 (Klebsiella pneumoniae) | other results |
| --- | --- | --- | --- | --- | --- | --- | --- | --- | --- | --- | --- | --- | --- | --- | --- | --- |
| CC(C)C[C@@H]1NC(=O)[C@@H](CC2CCCCC2)NC(=O)[C@H](CCN)NC(=O)[C@@H](NC(=O)[C@H](CN)NC(=O)[C@@H](NC(=O)C(CCN)C2CCCCC2)[C@@H](C)O)CCNC(=O)[C@H]([C@@H](C)O)NC(=O)[C@H](CCN)NC(=O)[C@H](CCN)NC1=O (stereo partly drawn) [Example 85, 4-amino-2-cyclohexylbutanoyl L-Thr-L-Dap-polymyxin [D-cyclohexylalanine-6]heptapeptide.] (X19-T[Dap][Dab][Dab][dCha]L[Dab][Dab]T; lactam 3-C) | 4 mg/L (≈ 3.56 µM) | 16 mg/L (≈ 14.3 µM) | 0.125 mg/L (≈ 0.111 µM) | 0.06 mg/L (≈ 0.0535 µM) | 64 mg/L (≈ 57 µM) | 64 mg/L (≈ 57 µM) | 0.125 mg/L (≈ 0.111 µM) | 0.125 mg/L (≈ 0.111 µM) | 2 mg/L (≈ 1.78 µM) | 4 mg/L (≈ 3.56 µM) | 0.5 mg/L (≈ 0.445 µM) | 0.5 mg/L (≈ 0.445 µM) | 8 mg/L (≈ 7.13 µM) | 0.5 mg/L (≈ 0.445 µM) | 0.5 mg/L (≈ 0.445 µM) |  |
| CC(C)C[C@@H]1NC(=O)[C@@H](CC2CCCCC2)NC(=O)[C@H](CCN)NC(=O)[C@@H](NC(=O)[C@H](CN)NC(=O)[C@@H](NC(=O)CCC(N)C2CCCCC2)[C@@H](C)O)CCNC(=O)[C@H]([C@@H](C)O)NC(=O)[C@H](CCN)NC(=O)[C@H](CCN)NC1=O (stereo partly drawn) [Example 63, 4-amino-4-cyclohexylbutanoyl L-Thr-L-Dap-polymyxin [D-cyclohexylalanine]-6 heptapeptide.] (X22-T[Dap][Dab][Dab][dCha]L[Dab][Dab]T; lactam 3-C) | 4 mg/L (≈ 3.56 µM) | 16 mg/L (≈ 14.3 µM) | 0.25 mg/L (≈ 0.223 µM) |  | 64 mg/L (≈ 57 µM) | 32 mg/L (≈ 28.5 µM) | 0.125 mg/L (≈ 0.111 µM) | 0.125 mg/L (≈ 0.111 µM) | 8 mg/L (≈ 7.13 µM) | 8 mg/L (≈ 7.13 µM) | 0.25 mg/L (≈ 0.223 µM) | 0.5 mg/L (≈ 0.445 µM) | >64 mg/L | 4 mg/L (≈ 3.56 µM) | 0.125 mg/L (≈ 0.111 µM) |  |
| CCCCCCN[C@@H](CCN)C(=O)N[C@H](C(=O)N[C@@H](CN)C(=O)N[C@H]1CCNC(=O)[C@H]([C@@H](C)O)NC(=O)[C@H](CCN)NC(=O)[C@H](CCN)NC(=O)[C@H](CC(C)C)NC(=O)[C@@H](CC2CCCCC2)NC(=O)[C@H](CCN)NC1=O)C(C)O (stereo partly drawn) [Example 49, (S)-4-amino-2-(hexylamino) butanoyl L-Thr-L-Dap-polymyxin [D-cyclohexylalanine]-6 heptapeptide.] (H-[X17][Thr(3ξ)][Dap][Dab][Dab][dCha]L[Dab][Dab]T; lactam 4-C) | 2 mg/L (≈ 1.76 µM) | 16 mg/L (≈ 14 µM) | 0.5 mg/L (≈ 0.439 µM) | 0.125 mg/L (≈ 0.11 µM) | 64 mg/L (≈ 56.2 µM) | 64 mg/L (≈ 56.2 µM) | 0.5 mg/L (≈ 0.439 µM) | 0.25 mg/L (≈ 0.219 µM) | 2 mg/L (≈ 1.76 µM) | 2 mg/L (≈ 1.76 µM) | 0.25 mg/L (≈ 0.219 µM) | 0.25 mg/L (≈ 0.219 µM) | 32 mg/L (≈ 28.1 µM) | 2 mg/L (≈ 1.76 µM) | 0.5 mg/L (≈ 0.439 µM) |  |
| CC(C)CC1CNCC(C(=O)N[C@H](C(=O)N[C@@H](CCN)C(=O)N[C@H]2CCNC(=O)[C@H]([C@@H](C)O)NC(=O)[C@H](CCN)NC(=O)[C@H](CCN)NC(=O)[C@H](CC(C)C)NC(=O)[C@@H](CC3CCCCC3)NC(=O)[C@H](CCN)NC2=O)[C@@H](C)O)C1 (stereo partly shown) [Example 73] (X4-T[Dab][Dab][Dab][dCha]L[Dab][Dab]T; lactam 3-C) | 1 mg/L (≈ 0.88 µM) | 2 mg/L (≈ 1.76 µM) | 0.125 mg/L (≈ 0.11 µM) | 0.125 mg/L (≈ 0.11 µM) | 64 mg/L (≈ 56.3 µM) | 16 mg/L (≈ 14.1 µM) | 0.25 mg/L (≈ 0.22 µM) | 0.125 mg/L (≈ 0.11 µM) | 1 mg/L (≈ 0.88 µM) | 1 mg/L (≈ 0.88 µM) | 0.5 mg/L (≈ 0.44 µM) | 0.5 mg/L (≈ 0.44 µM) | 8 mg/L (≈ 7.04 µM) | 2 mg/L (≈ 1.76 µM) | 0.25 mg/L (≈ 0.22 µM) |  |
| CCCCCCCCC1CNCC1C(=O)N[C@H](C(=O)N[C@@H](CCN)C(=O)N[C@H]1CCNC(=O)[C@H]([C@@H](C)O)NC(=O)[C@H](CCN)NC(=O)[C@H](CCN)NC(=O)[C@H](CC(C)C)NC(=O)[C@@H](Cc2ccccc2-c2ccccc2)NC(=O)[C@H](CCN)NC1=O)C(C)O (single isomer, unassigned; isomer 1) [Example 9, trans-4-octylpyrrolidine-3-carbonyl polymyxin [D-(2-phenyl)Phe]-6] nonapeptide. Isomer 1] | 2 mg/L (≈ 1.6 µM) | 8 mg/L (≈ 6.41 µM) | 1 mg/L (≈ 0.801 µM) |  | 64 mg/L (≈ 51.3 µM) | 32 mg/L (≈ 25.6 µM) | 1 mg/L (≈ 0.801 µM) |  | 2 mg/L (≈ 1.6 µM) | 2 mg/L (≈ 1.6 µM) | 1 mg/L (≈ 0.801 µM) |  | >64 mg/L | 8 mg/L (≈ 6.41 µM) |  | MIC E. coli 059 (Escherichia coli): 2 mg/L (≈ 1.6 µM); MIC E. coli 060 (Escherichia coli): 4 mg/L (≈ 3.2 µM); MIC K. pneumoniae 062 (Klebsiella pneumoniae): 64 mg/L (≈ 51.3 µM); MIC K. pneumoniae 064 (Klebsiella pneumoniae): 64 mg/L (≈ 51.3 µM); MIC K. pneumoniae 066 (Klebsiella pneumoniae): 32 mg/L (≈ 25.6 µM); MIC K. pneumoniae 067 (Klebsiella pneumoniae): >64 mg/L; MIC K. pneumoniae ATCC 4352 (Klebsiella pneumoniae): 0.5 mg/L (≈ 0.4 µM) |
